Measurements reported in PMC6627609, “Targeting Quorum Sensing: High-Throughput Screening to Identify Novel LsrK Inhibitors” (International Journal of Molecular Sciences, 2019).
Where a name gives a salt, the structure may show the parent alone.

Target: LsrK (Salmonella typhimurium, UniProt Q8ZKQ6)
Experiment: biochemical
Type: biochemical, S. typhimurium
Details: for Inhibition (%): 50 µM

LsrK, sequence (Q8ZKQ6 whole entry): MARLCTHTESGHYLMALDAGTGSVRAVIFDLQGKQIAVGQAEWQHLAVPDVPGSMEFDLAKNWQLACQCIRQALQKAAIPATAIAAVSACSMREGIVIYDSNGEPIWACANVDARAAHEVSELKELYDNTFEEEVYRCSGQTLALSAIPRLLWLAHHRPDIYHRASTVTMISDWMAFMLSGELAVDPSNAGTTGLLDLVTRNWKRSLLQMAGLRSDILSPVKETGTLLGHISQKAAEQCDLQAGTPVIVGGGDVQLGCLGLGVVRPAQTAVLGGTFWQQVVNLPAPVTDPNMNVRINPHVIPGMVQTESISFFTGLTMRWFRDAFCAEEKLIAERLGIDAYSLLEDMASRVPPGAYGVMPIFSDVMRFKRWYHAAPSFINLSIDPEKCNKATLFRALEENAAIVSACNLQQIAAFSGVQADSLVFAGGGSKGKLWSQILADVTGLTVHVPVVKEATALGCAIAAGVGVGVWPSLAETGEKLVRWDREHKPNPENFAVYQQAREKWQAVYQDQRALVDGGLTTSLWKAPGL

Row | Compound | inhibition at 50 µM | further results
1 | CC(=O)Oc1ccccc1C(=O)O [ASPIRIN] | 0% | 
2 | CC1=C(/C=C/C(C)=C/C=C/C(C)=C/C=C/C=C(C)/C=C/C=C(C)/C=C/C2=C(C)C(=O)[C@@H](O)CC2(C)C)C(C)(C)C[C@H](O)C1=O [ASTAXANTHIN] | 1% | 
3 | O=C1C(O)=C([C@H]2CC[C@H](c3ccc(Cl)cc3)CC2)C(=O)c2ccccc21 [ATOVAQUONE] | 1% | 
4 | COC(=O)c1c(C)cc(OC(=O)c2c(C)cc(O)c(C=O)c2O)c(C)c1O [ATRANORIN] | 0% | 
5 | CN1[C@@H]2CC[C@H]1C[C@@H](OC(=O)C(CO)c1ccccc1)C2 (stereo partly drawn) [ATROPINE SULFATE] | 3% | 
6 | OC[C@H]1O[C@H]([S-])[C@H](O)[C@@H](O)[C@@H]1O.[Au+] [AUROTHIOGLUCOSE] |  | Inhibition (%): 104
7 | C=CCCCCCCCCCCCc1ccco1 [AVOCADENOFURAN] |  | Inhibition (%): 2
8 | C#CCCCCCCCCCCCC(O)CC(O)COC(C)=O (stereo not drawn) [AVOCADYNE ACETATE] | 1% | 
9 | Nc1ncn([C@@H]2O[C@H](CO)[C@@H](O)[C@H]2O)c(=O)n1 [AZACITIDINE] | 9% | 
10 | O=C(CCCN1CCN(c2ccccn2)CC1)c1ccc(F)cc1 [AZAPERONE] | 25% | 
11 | [N-]=[N+]=CC(=O)OC[C@H](N)C(=O)O [AZASERINE] | 3% | 
12 | O=C(O)CCCCCCCC(=O)O [AZELAIC ACID] | 3% | 
13 | CN1CCCC(n2nc(Cc3ccc(Cl)cc3)c3ccccc3c2=O)CC1 (stereo not drawn) [AZELASTINE HYDROCHLORIDE] | 1% | 
14 | CC1(C)S[C@@H]2[C@H](NC(=O)[C@H](NC(=O)N3CCNC3=O)c3ccccc3)C(=O)N2[C@H]1C(=O)O [AZLOCILLIN SODIUM] | 0% | 
15 | c1ccc(/N=N/c2ccccc2)cc1 [AZOBENZENE] | 1% | 
16 | C[C@H]1[C@H](NC(=O)/C(=N\OC(C)(C)C(=O)O)c2csc(N)n2)C(=O)N1S(=O)(=O)O [AZTREONAM] | 1% | 
17 | CCOC(=O)OC(C)OC(=O)[C@@H]1N2C(=O)[C@@H](NC(=O)[C@H](N)c3ccccc3)[C@H]2SC1(C)C (stereo partly drawn) [BACAMPICILLIN HYDROCHLORIDE] | 5% | 
18 | CC(=O)O[C@H]1C(=O)[C@@]2(C)[C@H]([C@H](OC(=O)c3ccccc3)[C@]3(O)C[C@H](O)C(C)=C1C3(C)C)[C@]1(OC(C)=O)CO[C@@H]1C[C@@H]2O [BACCATIN III] | 9% | 
19 | O=c1cc(-c2ccccc2)oc2cc(O)c(O)c(O)c12 [BAICALEIN] | 2% | 
20 | CCC1(CC)C(=O)NC(=O)NC1=O [BARBITAL] | 1% | 
21 | CCOC(=O)[C@H](CCc1ccccc1)N[C@H]1CCc2ccccc2N(CC(=O)O)C1=O [BENAZEPRIL HYDROCHLORIDE] | 0% | 
22 | NS(=O)(=O)c1cc2c(cc1C(F)(F)F)NC(Cc1ccccc1)NS2(=O)=O (stereo not drawn) [BENDROFLUMETHIAZIDE] | 0% | 
23 | CC(Cc1cccc(C(F)(F)F)c1)NCCOC(=O)c1ccccc1 (stereo not drawn) [BENFLUOREX HYDROCHLORIDE] | 4% | 
24 | C/C(=C(\CCOP(=O)(O)O)SC(=O)c1ccccc1)N(C=O)Cc1cnc(C)nc1N [BENFOTIAMINE] | 0% | 
25 | NC(CO)C(=O)NNCc1ccc(O)c(O)c1O (stereo not drawn) [BENSERAZIDE HYDROCHLORIDE] | 97% | 
26 | O=C(CNC(=O)c1ccc(Cl)cc1)NO [BENURESTAT] |  | Inhibition (%): 3

Row | Compound | inhibition at 50 µM | further results
27 | CCc1oc2ccccc2c1C(=O)c1cc(Br)c(O)c(Br)c1 [BENZBROMARONE] | 106% | 
28 | O=C(O)c1ccccc1 [BENZOIC ACID] | 3% | 
29 | O=C(Oc1cccc2cccnc12)c1ccccc1 [BENZOXIQUINE] | 0% | 
30 | O=C(OOC(=O)c1ccccc1)c1ccccc1 [BENZOYL PEROXIDE] | 11% | 
31 | S=C=NCc1ccccc1 [BENZYL ISOTHIOCYANATE] | 2% | 
32 | C[N+](C)(CCOc1ccccc1)Cc1ccccc1.O=C([O-])c1cc2ccccc2cc1O [BEPHENIUM HYDROXYNAPTHOATE] |  | Inhibition (%): 1
33 | CC(C)COCC(CN(Cc1ccccc1)c1ccccc1)N1CCCC1 (stereo not drawn) [BEPRIDIL HYDROCHLORIDE] | 18% | 
34 | COc1ccc2cc3[n+](cc2c1OC)CCc1cc2c(cc1-3)OCO2 [BERBERINE CHLORIDE] | 1% | 
35 | COc1c(O)cc2c(c1O)[C@@H]1O[C@H](CO)[C@@H](O)[C@H](O)[C@H]1OC2=O [BERGENIN] | 0% | 
36 | O=C1CCO1 [BETA-PROPIOLACTONE] |  | Inhibition (%): 0
37 | CCC(=O)OCC(=O)[C@@]1(OC(=O)CC)[C@@H](C)C[C@H]2[C@@H]3CCC4=CC(=O)C=C[C@]4(C)[C@@]3(F)[C@@H](O)C[C@@]21C [BETAMETHASONE 17.21-DIPROPIONATE] |  | Inhibition (%): 0
38 | C[C@H]1C[C@H]2[C@@H]3CCC4=CC(=O)C=C[C@]4(C)[C@@]3(F)[C@@H](O)C[C@]2(C)[C@@]1(O)C(=O)CO [BETAMETHASONE] | 1% | 
39 | O=C(O)CCNC(=O)c1ccccc1 [BETAMIPRON] | 0% | 
40 | C=C(C)[C@@H]1CC[C@]2(CO)CC[C@]3(C)[C@H](CC[C@@H]4[C@@]5(C)CC[C@H](O)C(C)(C)[C@@H]5CC[C@]43C)[C@@H]12 [BETULIN] | 4% | 
41 | CC(C)(Oc1ccc(CCNC(=O)c2ccc(Cl)cc2)cc1)C(=O)O [BEZAFIBRATE] | 2% | 
42 | COc1ccc(-c2coc3cc(O)cc(O)c3c2=O)cc1 [BIOCHANIN A] |  | Inhibition (%): 25
43 | OC(CCN1CCCCC1)(c1ccccc1)C1CC2C=CC1C2 (stereo not drawn) [BIPERIDEN] | 1% | 
44 | CCc1ccc2c(O)c3c(cc2c1C(=O)OC)C(=O)c1c(O)ccc(O)c1C3=O [BISANHYDRORUTILANTINONE] | 2% | 
45 | CC(C)NCC(O)COc1ccc(COCCOC(C)C)cc1 (stereo not drawn) [BISOPROLOL FUMARATE] | 0% | 
46 | COC(=O)/C=C/C(C)=C\C=C\C(C)=C\C=C\C=C(C)\C=C\C=C(C)\C=C\C(=O)O [BIXIN] | 79% | 
47 | O=C(O)CC[N+](=O)[O-] [BOVINOCIDIN (3-nitropropionic acid), 3-nitropropionic acid] | 5% | 
48 | O=C1C=C2CC3(O)COc4cc(O)ccc4C3=C2C=C1O (stereo not drawn) [BRAZILEIN] | 66% | 
49 | Oc1ccc2c(c1)OC[C@]1(O)Cc3cc(O)c(O)cc3[C@H]21 [BRAZILIN] | 133% | 
50 | CC1(C)CC2C1CC[C@]1(CBr)CCC3C(CC(=O)O)C(=O)O[C@@]32C1 (stereo partly drawn) [BROMO-3-HYDROXY-4-(SUCCIN-2-YL)-CARYOLANE gamma-LACTONE] | 1% | 
51 | O=C(CCCN1CCC(O)(c2ccc(Br)cc2)CC1)c1ccc(F)cc1 [BROMPERIDOL] | 1% | 
52 | CN(C)CCC(c1ccc(Br)cc1)c1ccccn1 (stereo not drawn) [BROMPHENIRAMINE MALEATE] | 1% | 

Row | Compound | inhibition at 50 µM | further results
53 | COc1cc2c(cc1OC)[C@@]13CCN4CC5=CCO[C@H]6CC(=O)N2[C@H]1[C@H]6[C@H]5C[C@H]43 [BRUCINE] | 2% | 
54 | CCOc1ccc(NC(=O)CC(C)O)cc1 (stereo not drawn) [BUCETIN] | 0% | 
55 | CCCC1O[C@@H]2C[C@H]3[C@@H]4CCC5=CC(=O)C=C[C@]5(C)[C@H]4[C@@H](O)C[C@]3(C)[C@]2(C(=O)CO)O1 (stereo partly drawn) [BUDESONIDE] | 2% | 
56 | COc1cc(OC)c(C(=O)CCCN2CCCC2)c(OC)c1.Cl [BUFLOMEDIL HYDROCHLORIDE] |  | Inhibition (%): 1
57 | CCCCNc1cc(C(=O)O)cc(S(N)(=O)=O)c1Oc1ccccc1 [BUMETANIDE] | 1% | 
58 | CCCCN1CCCCC1C(=O)Nc1c(C)cccc1C (stereo not drawn) [BUPIVACAINE HYDROCHLORIDE] | 2% | 
59 | CCCCN(CCCC)CCCOC(=O)c1ccc(N)cc1 [BUTACAINE] | 3% | 
60 | CC(=O)OC[C@@]1(O)C[C@@]23CC[C@@H]4c5ccoc5CC[C@@]4(C)[C@@H]2CC[C@@H]1C3 [CAFESTOL ACETATE] | 1% | 
61 | CC[C@@]1(O)C(=O)OCc2c1cc1n(c2=O)Cc2cc3ccccc3nc2-1 [CAMPTOTHECIN] | 1% | 
62 | CCOc1nc2cccc(C(=O)OC(C)OC(=O)OC3CCCCC3)c2n1Cc1ccc(-c2ccccc2-c2nn[nH]n2)cc1 (stereo not drawn) [CANDESARTAN CILEXTIL, reference compound] |  | Inhibition (%): 101; IC50 (read-out: IC50 against LsrK): 14 µM
63 | C[C@]12CCC(=O)C=C1C=C[C@@H]1[C@@H]2CC[C@@]2(C)[C@H]1CC[C@@]2(O)CCC(=O)[O-].[K+] [CANRENOIC ACID. POTASSIUM SALT] |  | Inhibition (%): 0
64 | C[C@]12CCC(=O)C=C1C=C[C@@H]1[C@@H]2CC[C@@]2(C)[C@H]1CC[C@@]21CCC(=O)O1 [CANRENONE] | 1% | 
65 | C[C@@]12C(=O)OC(=O)[C@]1(C)[C@H]1CC[C@@H]2O1 [CANTHARIDIN] | 4% | 
66 | CC1=C(/C=C/C(C)=C/C=C/C(C)=C/C=C/C=C(C)/C=C/C=C(C)/C=C/C2=C(C)C(=O)CCC2(C)C)C(C)(C)CCC1=O [CANTHAXANTHIN (euglenanone), CANTHAXANTHIN] |  | Inhibition (%): 2
67 | CCCCCCCCCCCCCCC(C(=O)O)C(O)(CC(=O)OC)C(=O)O (stereo not drawn) [CAPERATIC ACID] |  | Inhibition (%): 8
68 | COc1cc(CNC(=O)CCCC/C=C/C(C)C)ccc1O [CAPSAICIN] | 2% | 
69 | CC1=C(/C=C/C(C)=C/C=C/C(C)=C/C=C/C=C(C)/C=C/C=C(C)/C=C/C(=O)[C@]2(C)C[C@@H](O)CC2(C)C)C(C)(C)C[C@H](O)C1 [CAPSANTHIN] | 1% | 
70 | COC(=O)C[C@H]1C(C)(C)C(=O)[C@@H]2CC3C4=CC(=O)O[C@@H](c5ccoc5)[C@]4(C)CC[C@@H]3[C@@]1(C)C2=O (stereo partly drawn) [CARAPIN] | 2% | 
71 | C[N+](C)(C)CCOC(N)=O [CARBACHOL] | 1% | 
72 | COC(=O)N/N=C/c1c[n+]([O-])c2ccccc2[n+]1[O-] [CARBADOX] | 3% | 
73 | C[C@@](Cc1ccc(O)c(O)c1)(NN)C(=O)O [CARBIDOPA] | 0% | 
74 | Cc1c(C(=O)O)c(O)cc2c1C(=O)c1c(O)c([C@@H]3O[C@H](CO)[C@@H](O)[C@H](O)[C@H]3O)c(O)c(O)c1C2=O [CARMINIC ACID] | 6% | 
75 | O=NN(CCCl)C(=O)NCCCl [CARMUSTINE] | 10% | 
76 | C[N+](C)(C)CC(O)CC(=O)O.[Cl-] (stereo not drawn) [CARNITINE (dl) HYDROCHLORIDE] |  | Inhibition (%): 3
77 | CC(C)c1cc2c(c(O)c1O)[C@@]1(C(=O)O)CCCC(C)(C)[C@@H]1CC2 [CARNOSIC ACID] | 2% | 
